# Test: Decomposition products of NK-104 and fluvastatin in aqueous solution of pH 3, analyzed by HPLC
# Format: physicochemical
# Details: aqueous solution pH 3, 40° C.
# Experimental: Decomposition products of NK-104 were analyzed by HPLC after incubation for two days at 40° C. in aqueous solution of pH 3. […] The decomposition products of fluvastatin were also analyzed for comparison.
# The conditions under which NK-104 and Fluvastatine decomposition products were analyzed are as follows:
# HPLC system: Type LC-10 (Shimadz, Japan)
# Column: DEVELOSIL ODS-HG-5 (NOMURA CHEM., Japan)
# Mobil Phase: MeOH/0.02 mol/L phosphate buffer (pH 3)=7/3
# Sample: NK-104 or fluvastatin/pH 3/40° C., 2 days
# Detector: SPD-MLOAVP, UV 245 mm
smiles,measurement,setting,value
"O=C(O)C[C@H](O)C[C@H](O)/C=C/c1c(C2CC2)nc2ccccc2c1-c1ccc(F)cc1 [NK-104, (E)-3,5-dihydroxy-7-[4′-4 ″-fluorophehyl-2 ′-cyclopropyl-quinolin-3′-yl]-6-heptenoic acid]",Quantity of decomposition products,2 days,a small quantity of one type of decomposition product
same,Decomposition products (types),two days,"a single product, a lactonized form of NK-104"
